{"source": "patent US20090325156A1", "about": "“MATERIALS AND METHODS FOR ABCB1 POLYMORPHIC VARIANT SCREENING, DIAGNOSIS, AND TREATMENT” (Government of the United States of America, as Represented …, priority 2005, published 2009)", "key": {"[1]": {"test_system": "patients with T-cell lymphoma", "assay": "Baseline corrected QTc interval (ΔQTc) on ECG after FK228 (romidepsin) treatment, by ABCB1 genotype", "type": "in vivo, human", "experimental": "Complete blood cell counts with differential are obtained immediately prior to FK228 administration and on days 2, 9, and 16 to evaluate FK228-related myelosuppression. Multiple surface electrocardiograms (ECGs) are obtained immediately before FK228 administration, and at 4 hours after the start of FK228 administration, to evaluate the ability of FK228 to delay cardiac repolarization. This effect is manifested on the ECG as prolongation of the QT interval. The QT interval is transformed into the heart-rate independent corrected value known as the QTc interval. Prolongation of the QTc interval is the electrocardiographic finding associated with increased susceptibility to the development of cardiac arrythmias, including ventricular arrhythmias such as Torsade de Pointes. Because measurement of the baseline value is a factor that critically influences the observed variability in the mean QTc interval, values are computed as the mean of multiple ECGs to enhance the precision of the measurement. This computation is performed by collecting drug-free ECGs on three or more different days. The on-study time point for obtaining an ECG are selected to coincide with the maximum plasma concentration of FK228, as recommended in the preliminary FDA concept paper: The Clinical Evaluation Of Qt/Qtc Interval Prolongation And Proarrhythmic Potential For Non-Antiarrhythmic Drugs (Nov. 15, 2002) available at: http://www.fda.gov/ohrms/dockets/ac/03/briefing/pubs %5Cprelim.pdf.\nRelationships between various exposure measures, for example, plasma AUC, and hematological and cardiac toxicity are evaluated by sigmoid maximum-effect models. […] Hematological pharmacodynamics are evaluated by analysis of the absolute nadir values of platelet counts or the relative thrombocytopenia, that is, the percent decrease in platelet count. Data are fitted to a sigmoid maximum-effect model based on the modified Hill equation, as follows: E=E0+Emax×[(KP^γ)/(KP^γ+KP50^γ)]. In this equation, E0 is the minimum reduction possible, Emax is the maximum response (fixed to a value of 100), KP is the pharmacokinetic parameter of interest, KP50 the value of the pharmacokinetic parameter predicted to result in half of the maximum response, and γ is the Hill constant, which describes the sigmoidicity of the curve. Models are evaluated for goodness of fit by minimization of sums of the squared residuals and by reduction of the estimated coefficient of variation for fitted parameters. Significance of the relationships are assessed by construction of contingency tables with subsequent chi-squared analysis.\nAll data are reported as median values with range, unless specified otherwise. Interindividual pharmacokinetic variability is calculated as the coefficient of variation, and expressed as a percentage. Genotype-frequency analysis of Hardy-Weinberg equilibrium is carried out using Clump version 1.9. The linkage between each pair of SNPs is determined in terms of the classical statistic D′. The absolute value for D′ (|D′|) of 1 denotes complete linkage disequilibrium, while a value of 0 denotes complete linkage equilibrium. The effects of the variant genotypes on ΔQTc, relative thrombocytopenia, dose-normalized AUC, apparent oral clearance, half-life, volume of distribution at steady-state are evaluated statistically with the nonparametric Kruskal-Wallis test. A post-hoc distribution-free multiple comparison procedure is performed using the Dunn test with Bonferroni correction to test pairs of median observations. All statistical analyses are performed using the NCSS software program (version 2001; NCSS, Kaysville, Utah). The a priori level of significance is set at 0.05."}, "[2]": {"test_system": "patients with T-cell lymphoma", "assay": "Hematological toxicity: percentage decrease in platelet count versus FK228 AUC (sigmoid maximum effect model)", "type": "in vivo, human", "conditions": "P<0.001, FIG. 1", "experimental": "Complete blood cell counts with differential are obtained immediately prior to FK228 administration and on days 2, 9, and 16 to evaluate FK228-related myelosuppression. Multiple surface electrocardiograms (ECGs) are obtained immediately before FK228 administration, and at 4 hours after the start of FK228 administration, to evaluate the ability of FK228 to delay cardiac repolarization. This effect is manifested on the ECG as prolongation of the QT interval. The QT interval is transformed into the heart-rate independent corrected value known as the QTc interval. […]\nRelationships between various exposure measures, for example, plasma AUC, and hematological and cardiac toxicity are evaluated by sigmoid maximum-effect models. […] Hematological pharmacodynamics are evaluated by analysis of the absolute nadir values of platelet counts or the relative thrombocytopenia, that is, the percent decrease in platelet count. […] Models are evaluated for goodness of fit by minimization of sums of the squared residuals and by reduction of the estimated coefficient of variation for fitted parameters. Significance of the relationships are assessed by construction of contingency tables with subsequent chi-squared analysis."}, "[3]": {"assay": "clinical", "conditions": "human, plasma, intravenous; for Vd: Vss, volume of distribution at steady-state"}}, "note": "Read-outs that look alike come from different tables or passages of the source.", "data": [{"smiles": "C/C=C1\\NC(=O)[C@H]2CSSCC/C=C/[C@H](CC(=O)N[C@H](C(C)C)C(=O)N2)OC(=O)[C@H](C(C)C)NC1=O", "note": "[FK228, (E)-(1S,4S,10S,21R)-7-[(Z)-ethylidene]-4,21-diisopropyl-2-oxa-12,13-dithia-5,8,20,23-tetraazabicyclo [8,7,6]-tricos-16-ene-3,6,19,22-pentanone]", "values": [{"measurement": "ΔQTc at four hours", "setting": "[1]; Example 1, ABCB1 2677GA genotype, n=1", "value": 17.8, "unit": "ms"}, {"measurement": "ΔQTc at four hours, median", "setting": "[1]; Example 1, ABCB1 2677GG genotype, n=10", "value": 18.3, "unit": "ms"}, {"measurement": "ΔQTc at four hours, median", "setting": "[1]; Example 1, ABCB1 2677GT genotype, n=14", "value": 16.5, "unit": "ms"}, {"measurement": "ΔQTc at four hours, median", "setting": "[1]; Example 1, ABCB1 2677T/T genotype, n=4", "value": -5, "unit": "ms"}, {"measurement": "ΔQTc at four hours, median", "setting": "[1]; Example 1, carriers of the heterozygote diplotype (2677/3435), n=7", "value": 11.3, "unit": "ms"}, {"measurement": "ΔQTc at four hours, median", "setting": "[1]; Example 1, carriers of the homozygote diplotype (2677/3435), n=19", "value": 18.5, "unit": "ms"}, {"measurement": "ΔQTc at four hours, median", "setting": "[1]; Example 1, homozygous for the ABCB1 2677TT/3435TT diplotype, n=3", "value": -5.0, "unit": "ms"}, {"measurement": "ΔQTc at 4 hours, median", "setting": "[1]; group 1, 0 reference alleles at both ABCB1 2677G>T/A and 3435C>T loci, N=4", "value": -1, "unit": "ms"}, {"measurement": "ΔQTc at 4 hours, median", "setting": "[1]; group 1, no reference alleles at the ABCB1 2677G>T/A locus, N=6", "value": -2.0, "unit": "ms"}, {"measurement": "ΔQTc at 4 hours, median", "setting": "[1]; group 1, one or more reference alleles at the ABCB1 2677G>T/A locus, N=32", "value": 18.2, "unit": "ms"}, {"measurement": "ΔQTc at 4 hours, median", "setting": "[1]; group 1, single reference allele at either ABCB1 2677G>T/A or 3435C>T locus, N=6", "value": 9.7, "unit": "ms"}, {"measurement": "ΔQTc at 4 hours, median", "setting": "[1]; group 1, two or more reference allele copy numbers at ABCB1 2677G>T/A and 3435C>T loci, N=28", "value": 18.5, "unit": "ms"}, {"measurement": "ΔQTc at 4 hours, median", "setting": "[1]; group 2, 0 or 1 reference alleles at ABCB1 2677G>T/A, N=14", "value": 4, "unit": "ms"}, {"measurement": "ΔQTc at 4 hours, median", "setting": "[1]; group 2, more than 1 reference allele at ABCB1 2677G>T/A, N=4", "value": 24.5, "unit": "ms"}, {"measurement": "association of AUC of FK228 with percentage decrease in platelet count", "setting": "[2]", "value": "weakly associated"}, {"measurement": "interindividual variability in drug clearance, percent coefficient of variation", "setting": "Example 1, 42 patients", "value": "approximately 72%"}, {"measurement": "interindividual variability in drug clearance, percent coefficient of variation", "setting": "Example 2", "value": "approximately 72%"}, {"measurement": "clearance", "setting": "[3]; Clearance, All (N = 74), median", "value": 238, "unit": "mL/min"}, {"measurement": "clearance", "setting": "[3]; Clearance, Group 1 (N = 45), median", "value": 252, "unit": "mL/min"}, {"measurement": "clearance", "setting": "[3]; Clearance, Group 2 (N = 29), median", "value": 232, "unit": "mL/min"}, {"measurement": "clearance", "setting": "[3]; FK228 clearance, Example 1, all 42 patients combined, 4-hour infusion 14 or 18 mg/m^2, mean ± standard deviation", "value": 292, "unit": "mL/min"}, {"measurement": "half-life", "setting": "[3]; T1/2, half-life of the terminal phase, All (N = 74), median", "value": 6, "unit": "h"}, {"measurement": "half-life", "setting": "[3]; T1/2, half-life of the terminal phase, Group 1 (N = 45), median", "value": 6.8, "unit": "h"}, {"measurement": "half-life", "setting": "[3]; T1/2, half-life of the terminal phase, Group 2 (N = 29), median", "value": 3.8, "unit": "h"}, {"measurement": "Vd", "setting": "[3]; All (N = 74), median", "value": 93.6, "unit": "L"}, {"measurement": "Vd", "setting": "[3]; Group 1 (N = 45), median", "value": 129, "unit": "L"}, {"measurement": "Vd", "setting": "[3]; Group 2 (N = 29), median", "value": 64.9, "unit": "L"}, {"measurement": "half-life", "setting": "[3]; terminal half-life, Example 1, all 42 patients combined, 4-hour infusion 14 or 18 mg/m^2, mean ± standard deviation", "value": "7.23 ± 3", "unit": "h"}]}]}
